Data from US7563445B2, “CD40 binding molecules and CTL peptides for treating tumors” (priority 1998, dated 2009).

Tests used:
[1] = system: HPV16 transformed syngeneic cells (TC-1); details: preventive vaccination with peptide, prior knowledge; cited from earlier work
E1A-specific CTL clone = assay: Spleen cells of peptide-injected mice as stimulator cells for an E1A-specific CTL clone ([3H]-thymidine incorporation); type: cell-based, C57BL/6 mice; details: splenocytes isolated 16 h after s.c. injection of 100 μg peptide in IFA
Protocol: Spleen cells derived from untreated C57BL/6 mice (−), or from mice injected s.c. 16 h earlier with 100 μg of E1A- or HPV16 E7-peptide in IFA were used as stimulator cells for an E1A-specific CTL clone. [^3H]-thymidine incorporation (cpm) +/−S. E. M. is shown for different effector to stimulator concentrations,. without subtraction of background counts. Results are representative of 5 independent experiments.
Spleen cells from these mice were isolated 16h later and used as stimulator cells for an E1A-specific CTL clone in vitro.

[2] = system: HPV16 transformed syngeneic cells (TC-1); assay: Therapy of HPV16 E6/E7 transformed tumor cells (TC-1) by peptide plus in vivo CD40 triggering; design: species or system C57BL/6 mice; details: treated 6 days after s.c. injection of 25.000 TC-1 cells; 100 μg peptide i.p. in IFA; n=10
Protocol: Mice were injected s.c with 25.000 HPV16 transformed syngeneic cells (TC-1). C57BL/6 mice were left untreated (-◯-) or after 6 days received 100 μg HPV16 E7-peptide i.p. in IFA (-□-), 100 μg HPV16 E7-peptide i.p. in IFA in combination with the anti-CD40 mAb FGK-45 (-▪-) or a control peptide i.p. in IFA in combination with the anti-CD40 mAb FGK-45 (-●-). The percentage of tumor bearing mice is depicted for different treatment groups (n=10) in (a). The differences between the group treated with the HPV16-peptide plus the anti-CD40 mAb and the other three groups were statistically significant (p<0.01) (Log-Rank test). In (b) the percentage of surviving animals is shown (E7-peptide-treated group vs E7-peptide plus anti-CD40-treated group: p=0.002, Log-Rank test).
It was examined whether CD40-triggering in vivo is beneficial to the outcome of vaccination with an HPV16 E7-derived peptide.

E1A-specific CTL = assay: E1A-peptide in IFA with in vivo CD40-triggering: E1A-specific CTL cytotoxicity and Db/E1A tetramer staining; design: species or system C57BL/6 mice; details: spleen of vaccinated mice
Description: Since CD4^+ T cell-mediated helper activity has been implicated in the prevention of peripheral CTL tolerance induction, the inventors addressed the question whether CD40-triggering in vivo is sufficient to prevent peripheral E1A-specific CTL tolerization.

CD40 = biological target: T1, CD40 (Mus musculus, UniProt P27512); assay: Cross-priming of E1B-specific CTLs in mice immunized with Ad5E1-BALB/c MECs, CD40 activation replacing CD4+ T help; type: in vivo; details: CD4-depleted mice after immunization; LPS 50 μg intravenous; IL-2 1×10^5 units in IFA subcutaneous (not shown)
T1 construct: endogenous in cells
Description: (§1) Each line represents one mouse.
as §1

T1 sequence (P27512 20-289): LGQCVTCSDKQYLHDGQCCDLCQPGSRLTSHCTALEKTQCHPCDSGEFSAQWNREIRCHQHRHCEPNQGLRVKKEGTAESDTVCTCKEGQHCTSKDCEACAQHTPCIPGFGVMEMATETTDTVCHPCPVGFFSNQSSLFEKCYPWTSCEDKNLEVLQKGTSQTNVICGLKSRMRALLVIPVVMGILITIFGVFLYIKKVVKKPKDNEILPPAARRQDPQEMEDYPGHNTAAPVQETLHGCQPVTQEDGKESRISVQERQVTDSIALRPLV

Substance | Immunity against a challenge with HPV16-transformed tumor cells [1] | Proliferation of E1A-specific CTL clone on splenocytes (E1A-specific CTL clone) | Tumor growth / outgrowth [2] | Percentage of CD8+ cells that stained with the Db/E1A tetramers (E1A-specific CTL) | E1B-specific CTL activity / CTL priming (CD40)
RAHYNIVTF (Human Papilloma Virus Type 16 E7 derived peptide) [E7-peptide] | induces protective CTL-mediated immunity | failed to do so | able to slow down tumor growth, but eventually most animals succumb to the tumor | – | –
SGPSNTPPEI (Human Adenovirus E1A derived peptide) [E1A-peptide] | – | induced specific proliferation | – | approximately 3% | –
bacterial lipopolysaccharide [LPS] | – | – | – | – | neither LPS or IL-2 treatment resulted in detectable CTL priming
